Measurements taken from patent publication US12084411B2, “Hinokitiol analogues, methods of preparing and pharmaceutical compositions thereof” (The Board of Trustees of the University of Illinois, priority 2018, dated 2024).
Marks after values point to notes of the source that are not given here.

Key:
[1] = Lipophilicity determination for small molecule iron chelates (octanol-water partition); type: physicochemical; conditions: octanol-water partition coefficient
Method: Concentrations of small molecule in water were determined via UV-Vis spectroscopy compared to known initial standards.

[2] = Iron (II) binding affinity, ferrozine competition assay; conditions: pH 7.0
Method: (§1) Specifically, the association constant for iron (II) was determined by a ferrozine competition assay (KA of ferrozine=3.65×10^15) (60). FeCl2 (25 μM) was pre-mixed with ferrozine (75 μM) in a 25 mM MES/Tris buffer at pH=7.0 containing 62.5 mM sodium ascorbate. Then increasing concentrations of small molecule (from 40X stocks in DMSO) were added to the indicated final concentrations. The solutions were allowed to equilibrate for 24 hours before reading of the absorbance at 562 nm. […] The system was allowed to equilibrate overnight, and the absorbance corresponding to the Fe(chelator)3 complex was determined. The EC50 values for each chelator were calculated by a nonlinear curve fit (Hill1) on OriginPro by plotting the absorbance vs. concentration of titrant, and the KA for each complex was determined from the equation: KA, ligand=(KA, competitor*[EC50])/[ligand] where the ligand is the molecule originally bound to iron, and the competitor is the competing chelator.

[3] = Iron (III) binding affinity, EDTA or citrate competition assay
Method: as §1

[4] = Electrochemical studies (cyclic voltammetry) of iron:chelator complexes; type: physicochemical; conditions: Table 2
Method: Potentiostatic electrochemical methods were performed on a CH Instruments electrochemical workstation (model 760 C, Austin, TX) on a three-electrode cell. Hg working electrodes were fabricated by the electrodeposition of Hg on a Pt wire utilizing the procedure previously described by Barton et al. (70). All experiments were reported versus a Ag/AgCl reference electrode and utilized a graphite auxiliary electrode. The electrolyte was sparged with UHP argon before measurements. A positive pressure of argon was maintained throughout the experiments.
Unless otherwise indicated, experiments used a 0.1 M Tris buffer in H2O or 1:1 MeOH:H2O at pH=7.2 using HNO3 and KOH as titrant. Unless otherwise indicated, experiments used a 100 mV/s scan rate, 100 μM Fe(NO3)3, and 500 μM small molecule. All redox potentials are recorded versus a normal hydrogen electrode (NHE).
The estimated redox potential of Fe(Hino)n was determined through extrapolation of the best-fit line of the determined redox potentials of Fe(Hino)n as a function of the concentration of MeOH in the 0.1 M Tris buffer at pH=7.2.

[5] = Table 2, in parenthesis; not run under identical conditions; cited from earlier work

In the case of O=c1cccccc1O [Tropolene], the “logP Fe^III Complex” value [1] is reported as −0.03, the “KA for iron (II)” value [2] is reported as 2.3 × 10^15 and the “KA for iron (III)” value ([3]; EDTA competition (citrate for maltol), pH 7.0) is reported as 1.1 × 10^24. The “pFe^III” value ([3]; estimated from known pFe of EDTA (citrate for maltol)) was 22^+, the “E^0 Aqueous” value [4] was 39 mV vs. N.H.E and the “E^0 1:1 MeOH:H2O” value ([4]; 0.1 M Tris, pH 7.2) was 38 mV vs. N.H.E. The “E^0 Aqueous, literature value” [5] was “(0)** mV vs. N.H.E”.
